From patent US20230101687A1, “SYNTHETIC TISSUE BARRIERS AND USES THEREOF” (Massachusetts Institute of Technology, priority 2019, published 2023)

What was measured:
[1] = target: endogenous catalase (CAT) (Sus scrofa, UniProt O62839); settings: of 35 porcine tissue sites
[2] = target: CAT (Homo sapiens, UniProt P04040)
Procedure: To confirm the reliability of the porcine-based TPA-positive tissue map described above for potential human trials, fresh resected tissue specimens from humans were tested for compatibility with TPA technology. Similar to the porcine TPA-map study, human tissue specimens were incubated with the TPA solution containing M1, and subsequently CAT-accelerated chromogenic M1 assembly was characterized.

Sequence of endogenous catalase (CAT) (O62839 2-527 limits assumed): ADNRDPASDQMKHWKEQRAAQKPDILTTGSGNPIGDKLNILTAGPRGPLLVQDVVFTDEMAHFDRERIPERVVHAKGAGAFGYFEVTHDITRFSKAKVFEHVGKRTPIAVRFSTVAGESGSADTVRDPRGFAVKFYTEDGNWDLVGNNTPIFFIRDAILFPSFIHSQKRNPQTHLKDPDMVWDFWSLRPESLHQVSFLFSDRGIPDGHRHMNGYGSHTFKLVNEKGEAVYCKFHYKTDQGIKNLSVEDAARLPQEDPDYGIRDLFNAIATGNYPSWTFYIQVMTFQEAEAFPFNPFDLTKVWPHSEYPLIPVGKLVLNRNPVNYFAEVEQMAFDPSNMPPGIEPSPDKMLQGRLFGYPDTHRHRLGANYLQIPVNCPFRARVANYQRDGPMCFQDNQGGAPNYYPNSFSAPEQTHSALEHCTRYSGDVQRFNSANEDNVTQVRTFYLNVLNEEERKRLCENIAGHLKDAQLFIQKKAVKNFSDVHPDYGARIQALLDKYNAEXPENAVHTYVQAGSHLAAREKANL
Sequence of CAT (P04040 2-527 limits assumed): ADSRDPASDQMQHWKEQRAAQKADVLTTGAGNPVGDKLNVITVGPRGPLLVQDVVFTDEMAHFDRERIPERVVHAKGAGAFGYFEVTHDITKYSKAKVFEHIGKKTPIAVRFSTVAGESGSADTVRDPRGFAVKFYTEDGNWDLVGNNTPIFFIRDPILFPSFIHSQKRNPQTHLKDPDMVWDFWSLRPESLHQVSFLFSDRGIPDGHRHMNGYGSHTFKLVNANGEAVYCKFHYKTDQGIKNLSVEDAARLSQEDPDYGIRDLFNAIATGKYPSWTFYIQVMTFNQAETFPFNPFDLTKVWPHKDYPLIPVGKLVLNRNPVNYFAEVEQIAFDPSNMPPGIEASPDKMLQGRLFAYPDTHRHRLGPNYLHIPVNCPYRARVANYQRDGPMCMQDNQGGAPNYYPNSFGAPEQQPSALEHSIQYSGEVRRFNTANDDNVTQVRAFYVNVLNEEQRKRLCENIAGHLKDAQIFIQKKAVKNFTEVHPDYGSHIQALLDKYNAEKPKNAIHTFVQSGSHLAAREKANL

NCCc1ccc(O)c(O)c1 [Monomer M1, dopamine]
tissue sites with no obvious PDA signal increase [1]: 9 tissue sites
tissue sites with significantly increased PDA levels (P<0.05) ([1]; dopamine plus hydrogen peroxide): 26 tissue sites
time to 95% completion of M1 assembly formation ([2]; all human tissue types tested): 4 to 23 min
adhesion of assemblies on human tissues ([2]; cartilage, buccal, tongue, blood): stably adhered M1 assemblies were observed
